In patent publication US8629168B2, “Benzoxazoles and oxazolopyridines being useful as janus kinases inhibitors” (priority 2006, dated 2014):

Tests used:
GST-JAK2 = biological target: T1, GST-JAK2 (Homo sapiens, UniProt O60674); assay: JAK2 kinase assay of the general description (alternative method, flash plate); type: biochemical; details: 1.0 μM ATP, read-out: IC50 with test in general description (named “alternative method to that given in the examples”) (“flash plate”)
T1 construct: the amino acid domain ASP751-VAL1129 of the JAK2 protein
T1 sequence (O60674 751-1129): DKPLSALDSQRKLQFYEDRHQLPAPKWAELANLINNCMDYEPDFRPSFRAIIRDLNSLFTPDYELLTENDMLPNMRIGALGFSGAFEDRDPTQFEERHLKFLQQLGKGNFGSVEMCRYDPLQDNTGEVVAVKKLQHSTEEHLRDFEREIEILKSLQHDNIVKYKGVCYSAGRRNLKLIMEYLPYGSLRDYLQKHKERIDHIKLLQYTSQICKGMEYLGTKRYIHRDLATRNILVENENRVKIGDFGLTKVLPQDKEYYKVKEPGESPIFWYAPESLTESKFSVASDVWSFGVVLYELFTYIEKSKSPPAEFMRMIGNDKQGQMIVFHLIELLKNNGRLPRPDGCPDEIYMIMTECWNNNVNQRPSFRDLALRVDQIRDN
Description: Baculovirus including the amino acid domain ASP751-VAL1129 of the JAK2 protein is obtainable by ProQinase, Freiburg, Germany. The virus is scaled up as following: Virus containing media is collected from the transfected cell culture and used for infection to increase its titer. Virus containing media obtained after two rounds of infection is used for large-scale protein expression. For large-scale protein expression 100 cm^2 round tissue culture plates are seeded with 5×10^7 cells/plate and infected with 1 mL of virus-containing media (approx. 5 MOIs). After 3 days the cells are scraped off the plate and centrifuged at 500 rpm for 5 min. Cell pellets from 10-20, 100 cm^2 plates, are re-suspended in 50 mL of ice-cold lysis buffer (25 mMTris-HCl, pH7.5, 2 mMEDTA, 1% NP-40, 1 mM DTT, 1 mMP MSF). The cells are stirred on ice for 15 min and then centrifuged at 5000 rpms for 20 min. The protein is purified by loading the centrifuged cell lysate onto a 2 mL glutathione-sepharose column and washed three times with 10 mL of 25 mM Tris-HCl, pH 7.5, 2 mM EDTA, 1 mM DTT, 200 mM NaCl. The GST-tagged proteins are then eluted by 10 applications (1 mL each) of 25 mM Tris-HCl, pH 7.5, 10 mM reduced-glutathione, 100 mM NaCl, 1 mM DTT, 10% Glycerol and stored at −70° C.
Cancer Cell; 5: 231-239]. The test compound is dissolved in DMSO (10 mM) and stored at −20° C. Serial dilutions are freshly made in DMSO and are […] concentrated than test solutions (“pre-dilution plates”). They are further diluted with pure water to yield “master plates” containing 3 times concentrated test solutions in 3% DMSO. The final volume of the assay is 30 μL containing 10 μL of test solution (1% DMSO), 10 μL assay mix including the assay components described by Garcia-Echeverria (2004) and in the following section as well as 10 μL enzyme. The pipetting steps can be programmed to be performed either on the MultiPROBE Iix, MultiPROBE IILx or HamiltonSTAR robots in the 96 well format.
The protein kinase assays are carried as described in details by Garcia-Echeverria (see above). The assay for JAK2 is carried out in 96-well plates at ambient temperature for 10 min (filter-biding method) or 30 min (flash plates) in a finial volume of 30 μL including the following components: 300 ng of GST-JAK2, 20 mM Tris-HCl, pH 7.5, 1.0 mM MnCl2, 10 mM MgCl2, 1 mM DTT, 3 μg/mL poly(Glu, Tyr) 4:1, 1% DMSO and 1.0 μM ATP (γ-[^33P]-ATP 0.1 μCi); The assays are terminated by the addition of 20 μl of 125 mM EDTA. The capturing of the phosphorylated peptides by the filter-binding method is performed as following: 40 μL of the reaction mixture are transferred onto Immobilon-PVDF membranes previously soaked for 5 min with methanol, rinsed with water, then soaked for 5 min with 0.5% H3PO4 and mounted on vacuum manifold with disconnected vacuum source. After spotting all samples, vacuum is connected and each well rinsed with 200 μl 0.5% H3PO4. Free membranes are removed and washed 4× on a shaker with 1.0% H3PO4, once with ethanol. Membranes are counted after drying at ambient temperature, mounting in Packard TopCount 96-well frame, and addition of 10 μl/well of Microscint. The plates are eventually sealed and counted in a microplate scintillation counter (TopCount NXT, TopCount NXT HTS, PerkinElmer, Brussels, Belgium).
The assays for the flash plate method is carried out in a total volume of 30 μL at RT in conventional 96-well flash plates. The reaction is stopped after 30 min by the addition of 20 μL of 125 mM EDTA The assay plates are then washed three times with PBS and dried at room temperature. The plates are sealed and counted in a microplate scintillation counter (TopCount NXT, TopCount NXT HTS). IC50 values are calculated by linear regression analysis of the percentage inhibition of the compound either in duplicate, at four concentrations (usually 0.01, 0.1, 1 and 10 μM) or as 8 single point IC50 starting at 10 μM following by 1:3 dilutions.

GST-JAK2(808-1132) = biological target: T2, GST-JAK2(808-1132) (Homo sapiens, UniProt O60674); assay: EPK JAK/TYK-kinase family profiling assay (Caliper mobility shift), JAK2; type: biochemical; details: Caliper mobility shift assay of Example 187, 20 μM ATP, read-out: IC50 with Test in present Example
T2 construct: GST-JAK2(808-1132) is purchased from Invitrogen; purchased Invitrogen (Carlsbad, USA) #4288
T2 sequence (O60674 808-1132): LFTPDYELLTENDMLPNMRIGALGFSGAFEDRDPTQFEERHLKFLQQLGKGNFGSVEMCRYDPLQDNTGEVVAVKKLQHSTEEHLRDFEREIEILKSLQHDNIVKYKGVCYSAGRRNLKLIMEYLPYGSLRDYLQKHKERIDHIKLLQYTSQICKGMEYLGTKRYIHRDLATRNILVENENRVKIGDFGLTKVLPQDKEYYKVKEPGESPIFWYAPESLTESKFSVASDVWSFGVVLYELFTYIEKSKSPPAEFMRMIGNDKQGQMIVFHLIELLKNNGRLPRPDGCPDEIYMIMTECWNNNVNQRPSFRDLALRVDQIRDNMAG
Summary of the method: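 Caliper mobility-shift assay with the GST-tagged kinase domain and a fluorescently labeled peptide substrate plus ATP, run 60 min at 30° C and then stopped with EDTA buffer. Turnover was taken as the substrate/product ratio. Compounds were tested at eight final concentrations from 10 to 0.003 μM.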

IC50 (GST-JAK2) [nM]	melting point [°C]	IC50 (GST-JAK2(808-1132)) [nM]	SMILES
590	199 to 201		COc1cc(Nc2nc3cccc(-c4cccc(Cl)c4)c3o2)cc(OC)c1OC [Example 9, [7-(3-Chloro-phenyl)-benzooxazol-2-yl]-(3,4,5-trimethoxy-phenyl)-amine]
140	> 280		COc1cc(Nc2nc3cccc(-c4ccc(C(=O)N(C)C)cc4)c3o2)cc(OC)c1OC [Example 25, N,N-Dimethyl-4-[2-(3,4,5-trimethoxy-phenylamino)-benzooxazol-7-yl]-benzamide]
670	192 to 193		COc1ccc(-c2cccc3nc(Nc4cc(OC)c(OC)c(OC)c4)oc23)cn1 [Example 12, [7-(6-Methoxy-pyridin-3-yl)-benzooxazol-2-yl]-(3,4,5-trimethoxy-phenyl)-amine]
170	222 to 223		COc1cc(Nc2nc3cccc(-c4ccc(C#N)cc4)c3o2)cc(OC)c1OC [Example 19, 4-[2-(3,4,5-Trimethoxy-phenylamino)-benzooxazol-7-yl]-benzonitrile]
	150 to 156		COc1cc(Nc2nc3cccc(-c4ccc5[nH]cnc5c4)c3o2)cc(OC)c1OC (hydrate or solvate) [Example 35, [7-(1H-Benzoimidazol-5-yl)-benzooxazol-2-yl]-(3,4,5-trimethoxy-phenyl)-amine]
	237 to 239		COc1cc(Nc2nc3cccc(-c4ccc(CNC(C)=O)cc4)c3o2)cc(OC)c1OC (hydrate or solvate) [Example 30, N-{4-[2-(3,4,5-Trimethoxy-phenylamino)-benzooxazol-7-yl]-benzyl}-acetamide]
290	203 to 204		COc1cc(Nc2nc3cccc(-c4cccc(CNC(C)=O)c4)c3o2)cc(OC)c1OC [Example 33, N-{3-[2-(3,4,5-Trimethoxy-phenylamino)-benzooxazol-7-yl]-benzyl}-acetamide]
270	145 to 150		COc1cc(Nc2nc3cccc(-c4cccc(CN)c4)c3o2)cc(OC)c1OC [Example 32, [7-(3-Aminomethyl-phenyl)-benzooxazol-2-yl]-(3,4,5-trimethoxy-phenyl)-amine]
368	201 to 203		COc1cc(Nc2nc3cccc(-c4cncc5ccccc45)c3o2)cc(OC)c1OC [Example 8, (7-Isoquinolin-4-yl-benzooxazol-2-yl)-(3,4,5-trimethoxy-phenyl)-amine]
147	192 to 196		COc1cc(Nc2nc3cccc(-c4ccc(N)cc4)c3o2)cc(OC)c1OC [Example 11, [7-(4-Amino-phenyl)-benzooxazol-2-yl]-(3,4,5-trimethoxy-phenyl)-amine]
1000	185 to 189		COc1cc(Nc2nc3cccc(-c4ccn[nH]4)c3o2)cc(OC)c1OC [Example 20, [7-(2H-Pyrazol-3-yl)-benzooxazol-2-yl]-(3,4,5-trimethoxy-phenyl)-amine]
	265 to 270		COc1cc(Nc2nc3cccc(-c4ccc(NC(C)=O)cc4)c3o2)cc(OC)c1OC (hydrate or solvate) [Example 27, N-{4-[2-(3,4,5-Trimethoxy-phenylamino)-benzooxazol-7-yl]-phenyl}-acetamide]
	222 to 225		COc1cc(Nc2nc3cccc(-c4ccc(NS(C)(=O)=O)cc4)c3o2)cc(OC)c1OC (hydrate or solvate) [Example 26, N-{4-[2-(3,4,5-Trimethoxy-phenylamino)-benzooxazol-7-yl]-phenyl}-methanesulfonamide]
700		58.5	COc1cc(Nc2nc3cccc(-c4ccc(C(=O)N5CCN(C)CC5)cc4)c3o2)cc(OC)c1OC [Example 142, (4-Methyl-piperazin-1-yl)-{4-[2-(3,4,5-trimethoxy-phenylamino)-benzooxazol-7-yl]-phenyl}-methanone]
	182 to 185		COc1cc(Nc2nc3cccc(-c4ccccc4)c3o2)cc(OC)c1OC [Example 2, (7-Phenyl-benzooxazol-2-yl)-(3,4,5-trimethoxy-phenyl)-amine]
	179 to 182		COc1ccc(-c2cccc3nc(Nc4cc(OC)c(OC)c(OC)c4)oc23)cc1 [Example 7, [7-(4-Methoxy-phenyl)-benzooxazol-2-yl]-(3,4,5-trimethoxy-phenyl)-amine]
230		16	COc1cc(Nc2nc3ccnc(-c4ccc(CNS(C)(=O)=O)cc4)c3o2)cc(OC)c1OC [Example 62, N-{4-[2-(3,4,5-Trimethoxy-phenylamino)-oxazolo[5,4-c]pyridin-4-yl]-benzyl}-methanesulfonamide]
150		37	CN(C)CCNC(=O)c1ccc(Nc2nc3cccc(-c4ccc(S(N)(=O)=O)cc4)c3o2)cc1 [Example 57, N-(2-Dimethylamino-ethyl)-4-[7-(4-sulfamoyl-phenyl)-benzooxazol-2-ylamino]-benzamide]
	208 to 211		COc1cc(Nc2nc3cccc(-c4ccc(CN)cc4)c3o2)cc(OC)c1OC (hydrate or solvate) [Example 29, [7-(4-Aminomethyl-phenyl)-benzooxazol-2-yl]-(3,4,5-trimethoxy-phenyl)-amine]
41.5		37	COc1ccc(Nc2nc3cccc(-c4ccc(S(N)(=O)=O)cc4)c3o2)cc1OC [Example 58, 4-[2-(3,4-Dimethoxy-phenylamino)-benzooxazol-7-yl]-benzenesulfonamide]
220		8.1	COc1cc(Nc2nc3cccc(-c4ccc(C(=O)N5CCOCC5)cc4)c3o2)cc(OC)c1OC [Example 141, Morpholin-4-yl-{4-[2-(3,4,5-trimethoxy-phenylamino)-benzooxazol-7-yl]-phenyl}-methanone]
	148 to 151		COc1cc(Nc2nc3ccnc(-c4ccc(N)cc4)c3o2)cc(OC)c1OC (hydrate or solvate) [Example 36, [4-(4-Amino-phenyl)-oxazolo[5,4-c]pyridin-2-yl]-(3,4,5-trimethoxy-phenyl)-amine]
	260 to 262		CNC(=O)c1cc(-c2cccc3nc(Nc4cc(OC)c(OC)c(OC)c4)oc23)cs1 (hydrate or solvate) [Example 34, 4-[2-(3,4,5-Trimethoxy-phenylamino)-benzooxazol-7-yl]-thiophene-2-carboxylic acid methylamide]
110		51	COCCNC(=O)c1ccc(Nc2nc3cccc(-c4ccc(S(N)(=O)=O)cc4)c3o2)cc1 [Example 56, N-(2-Methoxy-ethyl)-4-[7-(4-sulfamoyl-phenyl)-benzooxazol-2-ylamino]-benzamide]
